# According to US12398411B2, “Method for producing selenoneine” (KIKKOMAN CORPORATION, priority 2018, dated 2025):
# How the values were obtained:
# [1] = test system: Aspergillus sojae NBRC4239 strain; experiment: Toxicity of selenium compounds: cell proliferation with alamarBlue Cell Viability Reagent; assay type: cell-based; settings: conidia of Aspergillus sojae NBRC4239; 0-2 mM final concentration; 30° C. for 30 hours
# Protocol: The cytotoxicity of sodium selenite was tested as follows. To quantify cell proliferation, alamarBlue Cell Viability Reagent (Thermo Fisher Scientific) was used.
# The mixture composed of 2× DPY liquid medium (2 (w/v) % polypeptone, 4 (w/v) % dextrin, 1 (w/v) % yeast extract, 1 (w/v) % KH2PO4, 0.1 (w/v) % MgSO4·7H2O; pH not adjusted), 2× alamarBlue and 2×10^4 cells/ml the conidia of Aspergillus sojae NBRC4239 strain was dispensed in the volume of 100 μl into each well of a microplate. Similarly, 100 μl of an aqueous sodium selenite solution was added to each well so that the final concentration was 0 mM, 0.125 mM, 0.25 mM, 0.5 mM, 1 mM and 2 mM. The blank without the addition of the conidia and sodium selenite solution was used as a blank.
# After incubating the microplate at 30° C. for 30 hours, absorbance at 570 nm was measured. A plot of the value calculated by subtracting absorbance at 600 nm of the blank from the measurement result according to the instruction manual of alamarBlue reagent is shown in FIG. 4.
# [2] = known to have; no test by the applicant; cited from earlier work
Compound,degree of mycelial growth observed visually [1],"growth inhibition (cytotoxicity, absorbance at 570 nm, FIG. 4) [1]","antioxidant activity relative to its thio analog, ergothioneine [2]"
O=[Se](O)O [sodium selenite],No difference,no growth inhibition,–
C[N+](C)(C)[C@@H](Cc1cnc([Se-])[nH]1)C(=O)O [selenoneine],–,–,"1,000 times"
